Data as given in patent publication EP0997137B1 (Société des Produits Nestlé S.A., priority 1998, dated 2000).

Experiments:
[1] = test system: TNF-α secretion of keratinocytes which are treated with TPA; assay: TNF-α secretion by TPA-treated immortalized human keratinocytes (ELISA of supernatant); assay type: cell-based; details: for % of the control: control: TPA without piperonal
Protocol: These keratinocytes (cf. WO97/23602) are treated in this connection with inflammation-promoting substances, more specifically with a known skin irritant in the form of a phorbol ester (12-O-tetradecanoylphorbol acetate, abbreviated to TPA), and as a response to this treatment they display a typical inflammatory metabolic reaction, in particular an increase in the secretion of the inflammation-promoting cytokine TNF-α (tumour necrosis factor alpha).
A substance which inhibits the secretion of TNF-α in the case of TPA-treated keratinocytes in the above model in a dose-dependent manner is regarded as a potentially anti-inflammatory substance.
(§1) Specifically, the test is carried out by subjecting in vitro human keratinocytes, immortalized in culture, to an inflammation-promoting treatment using the abovementioned 12-O-tetradecanoylphorbol 13-acetate (TPA). The immortalized keratinocyte cell lines used are the cell lines DK2, FK2 or else DK7, which are described in the published International Patent Application WO 97/23602. The cell lines FK2 and DK2 were deposited on 5 October 1995 in accordance with the Budapest Treaty at the DSM depository (Deutsche Sammlung für Mikroorganismen und Zellkulturen GmbH, Mascheroder Weg 1b, D-38124 Braunschweig, Germany) and were given the deposit names DSM ACC2240 and DSM ACC2238. The cell line DK7-NR was deposited on 19 March 1998 at the Pasteur Institute, Paris (CNCM) under the number
I-1996. It is also possible to use an immortalized keratinocyte line HaCaT, which is described by Boukamp et al. in J. Cell. Biol., 106, 761-771, 1988).
Petri dishes (6 cm diameter), which contain 4 ml of the serum-free nutrient medium NR-2 (cf. WO97/23602; Biofluids), were inoculated with the abovementioned immortalized keratinocyte cell lines. As soon as confluence of the cell lawn was observed, the nutrient medium was replaced by a fresh, calcium-enriched nutrient medium NR-2 (1.5 mM CaCl2). The dishes were incubated for 2 days, the nutrient medium was replaced by fresh nutrient medium and the dishes were incubated for a further 2 days. […] In parallel, an identical batch without piperonal additive was prepared.
(§2) During the last 24 h of the above mentioned incubation, TPA in ethanol or a corresponding amount of ethanol was added in an amount of 10 ng/ml. The supernatants were then isolated and, by means of a known ELISA assay (Ruwag AG, Zurich, Switzerland) using specific antibodies to TNF-α (BioSource Inter., US, catalogue numbers KHC0012 and KHC3013), the concentration of TNF-α in the supernatant was determined.

[2] = test system: TNF-α secretion of keratinocytes; assay: Control experiments without TPA: TNF-α secretion by immortalized human keratinocytes (ELISA of supernatant); assay type: cell-based
Protocol: as §1
Petri dishes (6 cm diameter), which contain 4 ml of the serum-free nutrient medium NR-2 (cf. WO97/23602; Biofluids), were inoculated with the abovementioned immortalized keratinocyte cell lines. As soon as confluence of the cell lawn was observed, the nutrient medium was replaced by a fresh, calcium-enriched nutrient medium NR-2 (1.5 mM CaCl2). The dishes were incubated for 2 days, the nutrient medium was replaced by fresh nutrient medium and the dishes were incubated for a further 2 days.
as §2

keratinocytes = assay: Cytotoxic activity on the keratinocytes; details: concentrations used in the experiments (0.01-0.1%)
[3] = TPA + hydrocortisone (concentration not given)

Structure (SMILES)	Amount of TNF-α determined ([1]; TPA 10 ng/ml + hydrocortisone (concentration not given)) [pg/mL]	% inhibition [1, 3] [%]	% of the control [1, 3] [%]	Amount of TNF-α determined ([1]; TPA 10 ng/ml + 0.01% of piperonal) [pg/mL]	Amount of TNF-α determined ([1]; TPA 10 ng/ml + 0.05% of piperonal) [pg/mL]	Amount of TNF-α determined ([1]; TPA 10 ng/ml + 0.1% of piperonal) [pg/mL]	% of the control ([1]; TPA + 0.01% of piperonal) [%]	% inhibition ([1]; TPA + 0.05% of piperonal) [%]	% of the control ([1]; TPA + 0.05% of piperonal) [%]	% inhibition ([1]; TPA + 0.1% of piperonal) [%]	% of the control ([1]; TPA + 0.1% of piperonal) [%]	Amount of TNF-α determined ([2]; No TPA + 0.01% of piperonal) [pg/mL]	Amount of TNF-α determined ([2]; No TPA + 0.05% of piperonal) [pg/mL]	Amount of TNF-α determined ([2]; No TPA + 0.1% of piperonal) [pg/mL]	cytotoxic activity (keratinocytes)
C[C@]12CCC(=O)C=C1CC[C@@H]1[C@@H]2[C@@H](O)C[C@@]2(C)[C@H]1CC[C@]2(O)C(=O)CO [hydrocortisone, reference compound]	220.4	26.4	73.6												
O=Cc1ccc2c(c1)OCO2 [piperonal, 3,4-(methylenedioxy)benzaldehyde]				331.2	78.1	100.6	110.6	73.9	26.1	66.4	33.6	7.9	8.9	6.3	does not exhibit cytotoxic activity
